Results taken from PubChem BioAssay AID540252 (Sanford-Burnham Center for Chemical Genomics, 2011).
The source made the active and inactive calls. No rule for the calls is given here.

Target: glucose-6-phosphate dehydrogenase-6-phosphogluconolactonase (Plasmodium falciparum 3D7)
Test: PfG6PD enzyme inhibitors, direct NADPH readout, dose response, orthogonal assay, biochemical, end-point NADPH detection (AID 540252)
Conditions: purified PfG6PD enzyme

Q: How did the IC50 turn out when `O=[N+]([O-])c1c(NCCCO)cc(Sc2nc3ccccc3s2)c2nonc12` was run?
A: > 80 µM (inactive)

Q: How did the IC50 turn out when `O=S(=O)(Nc1ccc(Cl)cc1)c1ccc(N2CCOCC2)c(NC(=S)NCCN2CCOCC2)c1` was run?
A: > 80 µM (inactive)

Q: How did the IC50 turn out when `Cc1ccc(C)c(-n2sc3ccc(F)cc3c2=O)c1` was run?
A: 10.5 µM

Q: For `Cc1[nH]c2ccccc2c1/C=N/NC(=O)c1cccc(S(=O)(=O)Nc2ccccc2Cl)c1`, which IC50 is on record?
A: > 80 µM (inactive)

Q: How did the IC50 turn out when `CCn1c(SCC(=O)Nc2ccccc2OC)nnc1-c1cnccn1` was run?
A: > 80 µM (inactive)

Q: Which IC50 does the source give for `COc1ccc(C2(CNC(=O)c3ccc(OC)c([N+](=O)[O-])c3)CCCCC2)cc1OC` here?
A: > 80 µM (inactive)

Q: How did the IC50 turn out when `CCCN1CCc2cc(O)cc3c2[C@H]1Cc1ccc(O)c(O)c1-3` was run?
A: > 80 µM (inactive)

Q: With `Cc1cc(O)c(C(C)C)cc1N=Cc1ccccc1[N+](=O)[O-]` as the compound, how does the IC50 read?
A: > 80 µM (inactive)

Q: `Cc1ccc2nc(SCC(=O)N/N=C/c3ccco3)cc(C)c2c1` was tested. Which IC50 did it give?
A: > 80 µM (inactive)

Q: With `N#Cc1ccc(Oc2cccc3cccnc23)c([N+](=O)[O-])c1` as the compound, how does the IC50 read?
A: > 80 µM (inactive)

Q: Which IC50 does the source give for `CCCCCCCCn1sccc1=O` here?
A: 46 µM

Q: `O=C(Sc1n[nH]c(=O)[nH]c1=O)c1ccccc1` was tested. Which IC50 did it give?
A: 23.3 µM

Q: `CC(C)c1nnc(NC(=O)c2cccc(-n3cnnn3)c2)s1` was tested. Which IC50 did it give?
A: > 80 µM (inactive)

Q: Which IC50 does the source give for `COc1ccc(NC2CCCN(Cc3cccc4cnccc34)C2)cc1OC` (centres undefined) here?
A: > 80 µM (inactive)

Q: How did the IC50 turn out when `CCN(CC)CCn1c2ccccc2c(=O)c2c(O)ccc(O)c21` was run?
A: > 80 µM (inactive)

Q: For `COc1cc(/C=N/Nc2nncn2N)ccc1OCc1c(C)no[n+]1[O-]`, which IC50 is on record?
A: > 80 µM (inactive)

Q: With `CCOC(=O)c1c(C2COc3ccccc3O2)csc1NC(=O)c1ccco1` (centres undefined) as the compound, how does the IC50 read?
A: > 80 µM (inactive)

Q: For `O=C1/C(=C\c2ccc([N+](=O)[O-])cc2)CS(=O)(=O)C/C1=C/c1ccc([N+](=O)[O-])cc1`, which IC50 is on record?
A: > 80 µM (inactive)

Q: Which IC50 does the source give for `Cn1c(-c2sccc2OCc2cccc(C(F)(F)F)c2)n[nH]c1=S` here?
A: > 80 µM (inactive)

Q: For `CN1C(=O)CSc2ccc(NC(=O)N3CCc4ccccc43)cc21`, which IC50 is on record?
A: > 80 µM (inactive)

Q: How did the IC50 turn out when `Cc1nn(-c2ccccc2)c(Cl)c1/C=N/Nc1nc2ccccc2n1C` was run?
A: > 80 µM (inactive)

Q: `CCOc1ccccc1NC(=O)CCCc1nc2ccccc2c(=O)[nH]1` was tested. Which IC50 did it give?
A: > 80 µM (inactive)

Q: How did the IC50 turn out when `S=C(NN=Cc1ccccn1)N(Cc1ccccn1)Cc1ccccn1` was run?
A: > 80 µM (inactive)

Q: `Cn1c(=O)[nH]c(=O)c2c1nc([N+](=O)[O-])n2Cc1ccccc1` was tested. Which IC50 did it give?
A: > 80 µM (inactive)

Q: How did the IC50 turn out when `C=CCN1C=C2C(=O)C(C)(OC(=O)CCC(=O)OC)C(=O)C(Br)=C2C=C1c1ccc(OC)cc1` (centres undefined) was run?
A: > 80 µM (inactive)

Q: Which IC50 does the source give for `Oc1ccc(C23CC4CC(CC(C4)C2)C3)cc1O` here?
A: 52 µM

Q: How did the IC50 turn out when `O=C1C(Cl)=C(NCCc2ccccc2)C(=O)c2ccccc21` was run?
A: > 80 µM (inactive)

Q: How did the IC50 turn out when `COc1cccc(C2(c3cccc(OC)c3)CC2C(=O)Nc2ccc(F)cc2)c1` (centres undefined) was run?
A: > 80 µM (inactive)

Q: For `Cc1ccc(C(=O)Nc2nnc(S(=O)(=O)N3CCC(C)CC3)s2)cc1`, which IC50 is on record?
A: > 80 µM (inactive)
